The structures appear in SMILES notation.

From patent publication US10993947B2, “Treatment of skin lesions” (PIQUR THERAPEUTICS AG, priority 2016, dated 2021) come the findings set out here.

Assay [1] addresses T1, N-terminally GST-tagged mTOR (Homo sapiens, UniProt P42345).
T1 construct: truncated version: amino acids 1360-2549; purchased Life Technologies PR8683B
The experiment in a line: In vitro mTOR binding assay (LanthaScreen TR-FRET). As to conditions: LanthaScreen kinase binding, Tracer 314; read-out: mTOR IC50 (binding).
Description: A 10-point 4-fold serial dilution (highest concentration at 10 μmol/L and lowest concentration at 40 μmol/L) of each compound was tested for mTOR binding in duplicate in a 384-well plate. […] After 30 min incubation at RT, time-resolved FRET was measured with a Synergy 4 multi-mode microplate reader (Biotek Instruments) using the following settings: 100 microsecs delay before data collection, 200 microsecs time for data collection, 10 measurements per data point.
IC50 values of each compound were determined by plotting the emission ratio versus the compound concentrations (in logarithmic scale) and then by fitting a sigmoidal dose-response curve with variable slope to the data using GraphPad™ Prism.

For assay [2], the system named is pPKB S473 in A2058 cells. The experiment in a line: In-cell Western blot, pPKB S473. In kind it is cell-based. As to conditions: Homo sapiens, 1 hour treatment.
Description: (§1) Cells are fixed with 4% paraformaldehyde for 30 minutes at room temperature, washed 2 times with 1% BSA in PBS, permeabilized with 0.1% Triton X-100 in PBS/1% BSA for 30 minutes at room temperature and blocked with 5% goat serum in PBS/1% BSA/0.1% Triton X-100 for 30 minutes at room temperature. […] Cells are washed 3 times 5 minutes with PBS/1% BSA/0.1% triton and plate scanned with the Odyssey Infrared Scanning system using both 700 and 800 nm channels. […] To correct for background staining in the data analysis wells are treated only with secondary antibodies.
(§2) For data analysis the mean background signal from channel 700 nm and 800 nm are subtracted from each signal in channel 700 nm and 800 nm, respectively.
(§3) IC50 values of each compound are determined by plotting the normalized pPBK S473 and pS6 S235/S236 signals, respectively, versus the compound concentrations (in logarithmic scale) and then by fitting a sigmoidal dose-response curve with variable slope to the data using GraphPad™ Prism.
Assay [3] concerns pS6 S235/S236 in A2058 cells. Kind of assay: In-cell Western blot, pS6 S235/S236. In kind it is cell-based. The note with it: Homo sapiens, 1 hour treatment.
Description: as §1, §2, §3

T1 sequence (P42345 1360-2549): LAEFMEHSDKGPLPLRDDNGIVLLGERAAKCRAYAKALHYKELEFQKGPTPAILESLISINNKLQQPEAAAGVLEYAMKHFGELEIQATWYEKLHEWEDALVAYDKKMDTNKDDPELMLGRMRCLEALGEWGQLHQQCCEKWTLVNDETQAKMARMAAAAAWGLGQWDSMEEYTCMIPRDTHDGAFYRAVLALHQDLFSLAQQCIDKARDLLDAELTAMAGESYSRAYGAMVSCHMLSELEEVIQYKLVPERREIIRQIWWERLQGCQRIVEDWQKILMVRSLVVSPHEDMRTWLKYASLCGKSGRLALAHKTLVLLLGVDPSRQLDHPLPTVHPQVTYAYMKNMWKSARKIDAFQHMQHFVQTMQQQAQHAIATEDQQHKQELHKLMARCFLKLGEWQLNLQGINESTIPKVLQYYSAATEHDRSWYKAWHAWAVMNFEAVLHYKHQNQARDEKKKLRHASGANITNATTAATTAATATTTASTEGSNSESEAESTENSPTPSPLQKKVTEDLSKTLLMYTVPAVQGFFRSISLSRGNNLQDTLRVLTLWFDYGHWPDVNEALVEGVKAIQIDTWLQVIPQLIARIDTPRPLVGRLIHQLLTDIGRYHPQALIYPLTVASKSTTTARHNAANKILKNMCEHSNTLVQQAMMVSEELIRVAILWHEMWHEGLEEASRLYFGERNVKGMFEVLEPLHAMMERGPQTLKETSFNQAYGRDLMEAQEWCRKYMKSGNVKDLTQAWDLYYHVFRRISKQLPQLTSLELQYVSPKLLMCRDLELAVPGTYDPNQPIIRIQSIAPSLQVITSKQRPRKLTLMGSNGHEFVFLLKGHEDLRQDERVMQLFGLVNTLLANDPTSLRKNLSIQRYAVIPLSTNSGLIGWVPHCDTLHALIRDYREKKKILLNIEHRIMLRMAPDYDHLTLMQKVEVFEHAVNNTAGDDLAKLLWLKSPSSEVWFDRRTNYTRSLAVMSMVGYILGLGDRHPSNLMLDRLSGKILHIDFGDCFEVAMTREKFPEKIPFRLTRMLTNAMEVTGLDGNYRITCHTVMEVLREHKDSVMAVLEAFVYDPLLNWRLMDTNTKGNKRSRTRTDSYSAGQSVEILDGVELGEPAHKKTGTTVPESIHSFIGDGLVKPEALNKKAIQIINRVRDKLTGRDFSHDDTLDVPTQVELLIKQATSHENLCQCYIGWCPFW

For `C[C@H]1COCCN1c1cc(-c2cnc(N)cc2C(F)F)nc(N2CCOC[C@@H]2C)n1` [Compound 25, 5-(2,6-bis((S)-3-methylmorpholino)pyrimidin-4-yl)-4-(difluoromethyl)pyridin-2-amine], the IC50 in assay [1] was found to be 32 nM; in assay [2] (A2058, 1 h) it was 303 nM; in assay [3] (A2058, 1 h), 294 nM.

For `Nc1cc(C(F)F)c(-c2cc(N3CCOCC3)nc(N3CCOCC3)n2)cn1` [Compound 16, 4-(difluoromethyl)-5-(2,6-dimorpholinopyrimidin-4-yl)pyridin-2-amine], the IC50 in assay [1] is 30 nM; in assay [2], 207 nM; in assay [3] it was 184 nM.

As to `Nc1ncc(-c2cc(N3CCOCC3)nc(N3C4CCC3COC4)n2)c(C(F)F)n1` [Compound 24, 2-(3-oxa-8-azabicyclo[3.2.1]octan-8-yl)-4′-(difluoromethyl)-6-morpholino-[4,5′-bipyrimidin]-2′-amine], the IC50 came out at 35 nM in assay [1]; 84 nM in assay [2] (A2058, 1 h); 167 nM in assay [3] (A2058, 1 h).

For the compound `Nc1cc(C(F)F)c(-c2nc(N3CCNCC3)nc(N3CCOCC3)n2)cn1` [Compound 12], the IC50 in assay [1] turned out to be 543 nM; in assay [2] (A2058, 1 h), 208 nM; in assay [3] (A2058, 1 h) it was 515 nM.

Take `C[C@H]1COC[C@H](C)N1c1nc(-c2cnc(N)cc2C(F)F)nc(N2[C@@H](C)COC[C@@H]2C)n1` [Compound 83, 5-[4,6-bis[(3S,5S)-3,5-dimethylmorpholin-4-yl]-1,3,5-triazin-2-yl]-4-(difluoromethyl)pyridin-2-amine]: the IC50 in assay [1] came out at 32 nM; in assay [2], 379 nM; in assay [3] it was 294 nM.

Regarding `Nc1ncc(-c2cc(N3CCOCC3)nc(N3C4CCC3COC4)n2)c(C(F)(F)F)n1` [reference compound], the IC50 was determined as 121 nM in assay [1]; 340 nM in assay [2] (A2058, 1 h); 740 nM in assay [3] (A2058, 1 h).

Regarding `C[C@H]1COCCN1c1cc(-c2cnc(N)cc2C(F)F)nc(N2CCOCC2)n1` [Compound 27, (S)-4-(difluoromethyl)-5-(6-(3-methylmorpholino)-2-morpholinopyrimidin-4-yl)pyridin-2-amine], the IC50 in assay [1] is 65 nM; in assay [2], 614 nM; in assay [3], 766 nM.

Regarding `C[C@H]1COCCN1c1nc(-c2cnc(N)cc2C(F)(F)F)cc(N2CCOCC2)n1` [reference compound], the IC50 in assay [1] came out at 28 nM; in assay [2] (A2058, 1 h), 248 nM; in assay [3] (A2058, 1 h), 228 nM.

As for `CC1(C)COCCN1c1nc(-c2cnc(N)cc2C(F)F)nc(N2C3COCC2COC3)n1` [Compound 69, 4-(difluoromethyl)-5-[4-(3,3-dimethylmorpholin-4-yl)-6-(3,7-dioxa-9-azabicyclo[3.3.1]nonan-9-yl)-1,3,5-triazin-2-yl]pyridin-2-amine], the IC50 in assay [1] is 21 nM; in assay [2] (A2058, 1 h), 244 nM; in assay [3] (A2058, 1 h), 140 nM.

Consider `C[C@@H]1COCCN1c1nc(-c2cnc(N)cc2C(F)F)nc(N2[C@H](C)COC[C@H]2C)n1` [Compound 78, 4-(difluoromethyl)-5-[4-[(3R,5R)-3,5-dimethylmorpholin-4-yl]-6-[(3R)-3-methylmorpholin-4-yl]-1,3,5-triazirin-2-yl]pyridin-2-amine], for which the IC50 in assay [1] worked out at 38 nM; in assay [2] (A2058, 1 h), 506 nM; in assay [3] (A2058, 1 h) it was 392 nM.

Regarding `Nc1cc(C(F)F)c(-c2cc(N3CCOCC3)nc(N3C4CCC3COC4)n2)cn1` [Compound 23, 5-(2-(3-oxa-8-azabicyclo[3.2.1]octan-8-yl)-6-morpholinopyrimidin-4-yl)-4-(difluoromethyl)pyridin-2-amine], the IC50 in assay [1] amounted to 40 nM; in assay [2] (A2058, 1 h), 285 nM; in assay [3] (A2058, 1 h), 230 nM.

Regarding `C[C@H]1COCCN1c1cc(-c2cnc(N)cc2C(F)(F)F)nc(N2CCOC[C@@H]2C)n1` [reference compound], the IC50 was 152 nM in assay [1]; 452 nM in assay [2] (A2058, 1 h); 553 nM in assay [3] (A2058, 1 h).

Turning to `Nc1cc(C(F)F)c(-c2nc(N3CCOCC3)cc(N3CCOCC3)n2)cn1` [Compound 18, 4-(difluoromethyl)-5-(4,6-dimorpholinopyrimidin-2-yl)pyridin-2-amine], the IC50 in assay [1] came out at 31 nM; in assay [2], 243 nM; in assay [3], 256 nM.

On to `C[C@@H]1COC[C@H](C)N1c1nc(-c2cnc(N)cc2C(F)F)nc(N2CCOCC2(C)C)n1` [Compound 66, 4-(difluoromethyl)-5-[4-(3,3-dimethylmorpholin-4-yl)-6-[(3R,5S)-3,5-dimethylmorpholin-4-yl]-1,3,5-triazin-2-yl]pyridin-2-amine], for which the IC50 in assay [1] was 4 nM; in assay [2] (A2058, 1 h), 244 nM; in assay [3] (A2058, 1 h) it was 139 nM.

As to `C[C@@H]1COCCN1c1nc(-c2cnc(N)cc2C(F)F)nc(N2CCOC[C@H]2C)n1` [Compound 41, 5-[4,6-bis[(3R)-3-methylmorpholin-4-yl]-1,3,5-triazin-2-yl]-4-(difluoromethyl)pyridin-2-amine], the IC50 worked out at 22 nM in assay [1], 436 nM in assay [2] and 261 nM in assay [3].

In the case of `Nc1ncc(-c2nc(N3CCNCC3)nc(N3CCOCC3)n2)c(C(F)F)n1` [Compound 13], the IC50 in assay [1] came out at 1020 nM; in assay [2] (A2058, 1 h), 43 nM; in assay [3] (A2058, 1 h), 150 nM.

`C[C@@H]1COCCN1c1nc(-c2cnc(N)cc2C(F)F)nc(N2[C@@H](C)COC[C@@H]2C)n1` [Compound 79, 4-(difluoromethyl)-5-[4-[(3S,5S)-3,5-dimethylmorpholin-4-yl]-6-[(3R)-3-methylmorpholin-4-yl]-1,3,5-triazin-2-yl]pyridin-2-amine]: the IC50 in assay [1] amounted to 10 nM; in assay [2] (A2058, 1 h) it was 200 nM; in assay [3] (A2058, 1 h) it was 136 nM.

For `C[C@@H]1COCCN1c1nc(-c2cnc(N)cc2C(F)F)nc(N2[C@H](C)COC[C@@H]2C)n1` [Compound 44, 4-(difluoromethyl)-5-[4-[(3R,5S)-3,5-dimethylmorpholin-4-yl]-6-[(3R)-3-methylmorpholin-4-yl]-1,3,5-triazin-2-yl]pyridin-2-amine], the IC50 in assay [1] is 5 nM; in assay [2] (A2058, 1 h), 197 nM; in assay [3] (A2058, 1 h) it was 87 nM.

Consider `C[C@@H]1COCCN1c1nc(-c2cnc(N)cc2C(F)F)nc(N2C3COCC2COC3)n1` [Compound 47, 4-(difluoromethyl)-5-[4-(3,7-dioxa-9-azabicyclo[3.3.1]nonan-9-yl)-6-[(3R)-3-methylmorpholin-4-yl]-1,35-triazin-2-yl]pyridin-2-amine], for which the IC50 in assay [1] stood at 29 nM; in assay [2] (A2058, 1 h) it was 469 nM; in assay [3] (A2058, 1 h), 176 nM.

For the compound `Nc1ncc(-c2cc(N3CCOCC3)nc(N3CCOCC3)n2)c(C(F)F)n1` [Compound 17, 4′-(difluoromethyl)-2,6-dimorpholino-[4,5′-bipyrimidin]-2′-amine], the IC50 in assay [1] is 155 nM; in assay [3], 149 nM.

Turning to `Nc1cc(C(F)F)c(-c2cc(N3C4CCC3COC4)nc(N3C4CCC3COC4)n2)cn1` [Compound 22, 5-(6-(3-oxa-8-azabicyclo[3.2.1]octan-8-yl)-2-(3-oxa-8-azabicyclo[3.2.1]octan-8-yl)pyrimidin-4-yl)-4-(difluoromethyl)pyridin-2-amine], the IC50 in assay [1] came out at 18 nM; in assay [2] (A2058, 1 h), 57 nM; in assay [3] (A2058, 1 h), 216 nM.

Take `C[C@H]1COCCN1c1nc(-c2cnc(N)nc2C(F)F)nc(N2CCOCC2)n1` [Compound 9]: the IC50 in assay [1] turned out to be 24 nM; in assay [2] it was 35 nM; in assay [3], 72 nM.

On to `CC1(C)COCCN1c1nc(-c2cnc(N)cc2C(F)F)nc(N2CCOCC2(C)C)n1` [Compound 39, 5-[4,6-bis(3,3-dimethylmorpholin-4-yl)-1,3,5-triazin-2-yl]-4-(difluoromethyl)pyridin-2-amine], for which the IC50 is 1 nM in assay [1]; 106 nM in assay [2] (A2058, 1 h); 47 nM in assay [3] (A2058, 1 h).

With `COC[C@@H]1COCCN1c1nc(-c2cnc(N)cc2C(F)F)nc(N2CCOC[C@H]2C)n1` [Compound 46, 4-(difluoromethyl)-5-[4-[(3R)-3-(methoxymethyl)morpholin-4-yl]-6-[(3R)-3-methylmorpholin-4-yl]-1,3,5-triazin-2-yl]pyridin-2-amine], the IC50 in assay [1] was determined as 36 nM; in assay [2] (A2058, 1 h), 956 nM; in assay [3] (A2058, 1 h), 426 nM.

`Nc1cc(C(F)(F)F)c(-c2cc(N3CCOCC3)nc(N3C4CCC3COC4)n2)cn1` [reference compound]: the IC50 in assay [1] came to 88 nM; in assay [2] (A2058, 1 h), 564 nM; in assay [3] (A2058, 1 h), 562 nM.

In the case of `C[C@@H]1COCCN1c1nc(-c2cnc(N)cc2C(F)F)nc(N2CCOCC2(C)C)n1` [Compound 45, 4-(difluoromethyl)-5-[4-(3,3-dimethylmorpholin-4-yl)-6-[(3R)-3-methylmorpholin-4-yl]-1,3,5-triazin-2-yl]pyridin-2-amine], the IC50 in assay [1] is 7 nM; in assay [2] (A2058, 1 h) it was 234 nM; in assay [3] (A2058, 1 h), 93 nM.

Regarding `C[C@H]1COCCN1c1cc(-c2cnc(N)cc2C(F)(F)F)nc(N2CCOCC2)n1` [reference compound], the IC50 in assay [1] was found to be 376 nM; in assay [2] (A2058, 1 h), 883 nM; in assay [3] (A2058, 1 h), 1100 nM.

Consider `C[C@H]1COCCN1c1cc(-c2cnc(N)nc2C(F)F)nc(N2CCOC[C@@H]2C)n1` [Compound 26, 4′-(difluoromethyl)-2,6-bis((S)-3-methylmorpholino)-[4,5′-bipyrimidin]-2′-amine], for which the IC50 in assay [1] came out at 47 nM; in assay [2] (A2058, 1 h) it was 87 nM; in assay [3] (A2058, 1 h), 191 nM.

Consider `Nc1cc(C(F)F)c(-c2nc(N3C4CCCC3COC4)nc(N3C4COCC3COC4)n2)cn1` [Compound 82, 4-(difluoromethyl)-5-[4-(3,7-dioxa-9-azabicyclo[3.3.1]nonan-9-yl)-6-(3-oxa-9-azabicyclo[3.3.1]nonan-9-yl)-1,3,5-triazin-2-yl]pyridin-2-amine], for which the IC50 is 40 nM in assay [1]; 329 nM in assay [2] (A2058, 1 h); 169 nM in assay [3] (A2058, 1 h).
